Measured values reported in the RepoRT retention time repository.

Assay: Waters ACQUITY UPLC BEH C18, 50 × 2.1 mm, 1.7 µm, 30 °C, 0.3 mL/min, estimated dead time 0.37 min; A: water + 0.3% formic acid; B: acetonitrile; gradient (min/%B) 0.5/5 3.5/20 5.5/25 7/57 8/90
Settings: stereoisomer not certain

LC retention time: 1.44 min
SMILES: CC(C)(C)NCC(O)c1cc(O)cc(O)c1 (stereo unspecified)
